How the values were obtained:
STAT3 and AKT signaling = assay: Western blot of p-STAT3 and p-AKT in bone marrow-derived macrophages; type: cell-based, mouse; conditions: BMMs, IL-4 20 ng/ml + 100 nM PGE2, 10 μM TP-16
Procedure: Briefly, cells and tumor tissues were lysed with radio immunoprecipitation assay buffer containing phosphatase and protease inhibitor cocktail (MedChemExpress, Monmouth Junction, NJ, USA). A total of 30‐80 μg of normalized total proteins from lysates were run on 6‐10% SDS‐polyacrylamide gels. The proteins transferred from gels to nitrocellulose membranes (Millipore, Billerica, MA, USA) were incubated with primary antibodies overnight at 4°C, washed, and incubated with secondary antibodies for 1 h at room temperature. Visual signals were detected using the LI‐COR Odyssey Infrared Imaging System (LI‐COR Biosciences, Lincoln, NE). Mouse protein primary antibodies used for Western blotting were listed as follows: COX2 (1:1000 dilution, 12282, CST), p‐Stat3 (1:2000 dilution, Tyr^705, 9145, CST), Stat3 (1:1000 dilution, 9139, CST), p‐Akt (1:2000 dilution, Ser^473, 4060, CST), Akt (1:1000 dilution, 9272, CST), Arg‐1 (1:100 dilution, 16001, Proteintech, Rosemont, IL), and GAPDH (1:10000 dilution, Ab181602, Abcam).

ADRB2 = target: T1, ADRB2 (Homo sapiens, UniProt P07550); assay: GPCR calcium flux assay; type: cell-based
T1 construct: Pharmaron (Beijing, China) performed the assay

ADORA3 = target: T2, ADORA3 (Homo sapiens, UniProt P0DMS8); assay: LANCE Ultra cAMP assay; type: cell-based
T2 construct: Pharmaron (Beijing, China) performed the assay

mouse bone marrow cells = assay: GM-CSF/IL-6-induced bone marrow MDSC differentiation assay; type: cell-based; conditions: GM-CSF/IL-6/PGE2, 0.1-10 μM TP-16, 6 days
Procedure: Single‐cell suspensions of mouse BM cells were prepared by filtering femurs and tibias of 6‐week‐old female BALB/c mice through 40‐μm cell strainers (Falcon). These suspensions were treated with red blood cell lysis buffer and replated in conditioned medium. Monocyte differentiation, MDSC induction, and macrophage polarization were analyzed by FACS analysis (BD Biosciences) with FlowJo software.
For the MDSC induction assay, purified BM cells were cultured in RPMI1640 medium stimulated with recombinant mouse GM‐CSF (40 ng/ml, Peprotech) and IL‐6 (40 ng/ml, Peprotech) for 6 days to generate bone marrow‐derived MDSCs (Svoronos et al., 2017); the medium was refreshed every 3 days. Vehicle or PGE2 (10 nM) ± TP‐16 was added simultaneously on day 0 for FACS analysis of BM‐derived MDSCs. For quantitative PCR (qPCR) analysis of MDSCs, differentiated MDSCs were treated with vehicle or PGE2 (10 nM) ± TP‐16 for 12 h.

AODRA1 = AODRA1 (Homo sapiens, UniProt P30542); assay: LANCE Ultra cAMP assay
[1] = In vitro metabolic stability using liver microsome; type: in vitro ADME; conditions: mouse liver microsome
ADRB1 = target: T3, ADRB1 (Homo sapiens, UniProt P08588); assay: GPCR calcium flux assay; type: cell-based
T3 construct: Pharmaron (Beijing, China) performed the assay

ADORA2B = ADORA2B (Homo sapiens, UniProt P29275); assay: LANCE Ultra cAMP assay
CB2 = CB2 (Homo sapiens, UniProt P34972); assay: LANCE Ultra cAMP assay
[2] = 14-day repeat-dose toxicity study in Sprague Dawley rats; type: in vivo; conditions: for Nasal cavity: Normal: animals normal/examined
Procedure: (three males and three females). […]
orally administrated once daily for 14 days. Abnormal behaviors and mortality
were observed every day and b ody weight was recorded every three days.
Animals were sacrificed on day 15, and blood parameters and organ
morphology were recorded. […]

[3] = female, Sprague-Dawley, rat, in vivo, 100 mg/kg/day, 14 days
[4] = male, Sprague-Dawley, rat, in vivo, 100 mg/kg/day, 14 days

Sequence of AODRA1 (P30542 whole entry): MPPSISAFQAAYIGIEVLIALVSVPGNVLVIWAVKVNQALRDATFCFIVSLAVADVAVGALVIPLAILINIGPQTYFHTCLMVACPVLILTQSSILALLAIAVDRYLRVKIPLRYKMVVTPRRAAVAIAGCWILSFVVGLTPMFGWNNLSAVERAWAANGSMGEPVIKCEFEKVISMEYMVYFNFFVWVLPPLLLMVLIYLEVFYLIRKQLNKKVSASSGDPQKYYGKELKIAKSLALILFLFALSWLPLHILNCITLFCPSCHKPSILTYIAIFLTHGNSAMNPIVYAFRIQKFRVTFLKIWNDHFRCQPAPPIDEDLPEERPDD
T1 sequence (P07550 whole entry, species assumed): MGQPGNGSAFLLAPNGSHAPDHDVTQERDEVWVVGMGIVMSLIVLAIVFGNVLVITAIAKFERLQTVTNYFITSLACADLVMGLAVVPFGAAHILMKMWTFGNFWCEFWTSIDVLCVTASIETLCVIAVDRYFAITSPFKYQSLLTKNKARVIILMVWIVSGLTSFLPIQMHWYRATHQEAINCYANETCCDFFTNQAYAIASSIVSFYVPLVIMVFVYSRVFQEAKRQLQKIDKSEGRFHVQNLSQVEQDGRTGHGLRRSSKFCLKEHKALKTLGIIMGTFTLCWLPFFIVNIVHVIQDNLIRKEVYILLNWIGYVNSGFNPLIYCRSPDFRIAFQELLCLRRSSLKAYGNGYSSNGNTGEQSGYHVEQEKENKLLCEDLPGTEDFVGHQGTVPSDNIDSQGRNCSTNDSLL
T2 sequence (P0DMS8 whole entry, species assumed): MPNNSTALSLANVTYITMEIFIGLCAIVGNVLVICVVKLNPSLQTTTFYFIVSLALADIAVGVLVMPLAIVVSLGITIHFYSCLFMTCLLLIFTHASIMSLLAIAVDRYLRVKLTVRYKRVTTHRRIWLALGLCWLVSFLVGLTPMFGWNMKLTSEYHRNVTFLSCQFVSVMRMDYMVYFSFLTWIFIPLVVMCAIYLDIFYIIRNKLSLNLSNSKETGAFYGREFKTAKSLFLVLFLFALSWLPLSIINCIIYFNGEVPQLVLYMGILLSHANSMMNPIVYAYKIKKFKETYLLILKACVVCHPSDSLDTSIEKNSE
Sequence of ADORA2B (P29275 whole entry, species assumed): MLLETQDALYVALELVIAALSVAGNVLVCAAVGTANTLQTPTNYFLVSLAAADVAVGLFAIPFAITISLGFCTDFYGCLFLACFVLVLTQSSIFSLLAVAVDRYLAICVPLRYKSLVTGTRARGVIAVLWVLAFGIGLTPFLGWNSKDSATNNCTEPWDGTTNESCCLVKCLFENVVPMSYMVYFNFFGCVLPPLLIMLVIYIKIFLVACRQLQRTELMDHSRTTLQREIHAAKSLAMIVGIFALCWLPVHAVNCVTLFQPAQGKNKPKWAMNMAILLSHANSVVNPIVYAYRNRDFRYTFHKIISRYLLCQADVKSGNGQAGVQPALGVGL
T3 sequence (P08588 whole entry, species assumed): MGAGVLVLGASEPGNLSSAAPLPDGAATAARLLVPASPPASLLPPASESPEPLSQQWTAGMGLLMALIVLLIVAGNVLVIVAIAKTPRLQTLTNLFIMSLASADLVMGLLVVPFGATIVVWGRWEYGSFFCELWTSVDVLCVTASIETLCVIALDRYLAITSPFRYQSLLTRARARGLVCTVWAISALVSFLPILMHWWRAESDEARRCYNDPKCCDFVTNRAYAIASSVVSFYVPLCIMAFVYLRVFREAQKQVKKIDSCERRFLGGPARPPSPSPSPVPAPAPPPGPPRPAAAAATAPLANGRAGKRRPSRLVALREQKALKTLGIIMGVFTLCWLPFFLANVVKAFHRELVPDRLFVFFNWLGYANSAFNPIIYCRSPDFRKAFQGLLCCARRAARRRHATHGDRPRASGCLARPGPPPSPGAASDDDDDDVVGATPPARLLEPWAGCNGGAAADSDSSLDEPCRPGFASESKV
Sequence of CB2 (P34972 whole entry, species assumed): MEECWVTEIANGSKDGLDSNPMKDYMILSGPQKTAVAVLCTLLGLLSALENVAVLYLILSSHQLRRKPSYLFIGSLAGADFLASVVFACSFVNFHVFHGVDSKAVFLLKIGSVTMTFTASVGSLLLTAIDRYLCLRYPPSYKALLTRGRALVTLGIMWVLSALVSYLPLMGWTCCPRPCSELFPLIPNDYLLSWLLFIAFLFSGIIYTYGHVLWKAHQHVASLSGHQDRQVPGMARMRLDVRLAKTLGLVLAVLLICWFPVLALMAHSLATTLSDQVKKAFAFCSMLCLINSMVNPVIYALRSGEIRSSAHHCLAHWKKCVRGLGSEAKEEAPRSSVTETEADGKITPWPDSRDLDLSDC

C[C@H](NC(=O)c1c(Cc2ccc(F)cc2)sc2c1CCOC2)c1ccc(C(=O)O)cc1 [TP-16]
IL-4/PGE2-induced phosphorylation of STAT3 and AKT (STAT3 and AKT signaling): significantly reversed | IC50 (ADRB2): > 10 µM | IC50 (ADORA3): > 10 µM | PGE2-dependent expansion of both mMDSCs and PMN-MDSCs (mouse bone marrow cells): significantly inhibited | IC50 (AODRA1): > 10 µM | hepatocyte CLint ([1]; liver microsomes): 5.91 µL/min/1e6 cells | half-life ([1]; liver microsomes, read-out: In vitro T1/2): 3.92 h | CLhep predicted ([1]; liver microsomes, read-out: Predicted hepatic Clint): 39.3 mL/min/kg | CLint scaled ([1]; liver microsomes, read-out: Scale-up Clint): 69.8 mL/min/kg | Remaining Percentages at 120 min [1]: 70.6% | IC50 (ADRB1): > 10 µM | IC50 (ADORA2B): > 10 µM | IC50 (CB2): > 10 µM | Nasal cavity: Normal ([2]; female rats, 100 mg/kg/day, 14 days): 3/3 | Brain: Normal [2, 3]: 3/3 | Cervical lymph node: Normal [2, 3]: 3/3 | Colon: Normal [2, 3]: 3/3 | Duodenum: Normal [2, 3]: 3/3 | Esophagus: Normal [2, 3]: 3/3 | Eye: Normal [2, 3]: 3/3 | Femur/Bone marrow: Normal [2, 3]: 3/3 | Harderian gland: Normal [2, 3]: 3/3 | Heart: Normal [2, 3]: 3/3 | Ileum: Normal [2, 3]: 3/3 | Jejunum: Normal [2, 3]: 3/3 | Kidney: Normal [2, 3]: 3/3 | Liver: Normal [2, 3]: 3/3 | Lung: Normal [2, 3]: 3/3 | Mesenteric lymph node: Normal [2, 3]: 3/3 | Ovary: Normal [2, 3]: 3/3 | Pancreas: Normal [2, 3]: 3/3 | Parathyroid gland: Normal [2, 3]: 3/3 | Pituitary gland: Normal [2, 3]: 3/3 | Preputial/Clitoral gland: Normal [2, 3]: 3/3 | Rectum: Normal [2, 3]: 3/3 | Salivary gland: Normal [2, 3]: 3/3 | Skin/ Mammary gland: Normal [2, 3]: 3/3 | Spleen: Normal [2, 3]: 3/3 | Stomach: Normal [2, 3]: 3/3 | Testis: Normal [2, 3]: 3/3 | Thymus: Normal [2, 3]: 3/3 | Thyroid gland: Normal [2, 3]: 3/3 | Trachea: Normal [2, 3]: 3/3 | Urinary bladder: Normal [2, 3]: 3/3 | Uterus: Normal [2, 3]: 3/3 | Vagina: Normal [2, 3]: 3/3 | Nasal cavity: Normal ([2]; male rats, 100 mg/kg/day, 14 days): 3/3 | Brain: Normal [2, 4]: 3/3 | Cervical lymph node: Normal [2, 4]: 3/3 | Colon: Normal [2, 4]: 3/3 | Duodenum: Normal [2, 4]: 3/3 | Epididymis: Normal [2, 4]: 3/3 | Esophagus: Normal [2, 4]: 3/3 | Eye: Normal [2, 4]: 3/3 | Femur/Bone marrow: Normal [2, 4]: 3/3 | Harderian gland: Normal [2, 4]: 3/3 | Heart: Normal [2, 4]: 3/3 | Ileum: Normal [2, 4]: 3/3 | Jejunum: Normal [2, 4]: 3/3 | Kidney: Normal [2, 4]: 3/3 | Liver: Normal [2, 4]: 3/3 | Lung: Normal [2, 4]: 3/3 | Mesenteric lymph node: Normal [2, 4]: 3/3 | Pancreas: Normal [2, 4]: 3/3 | Parathyroid gland: Normal [2, 4]: 3/3 | Pituitary gland: Normal [2, 4]: 3/3 | Preputial/Clitoral gland: Normal [2, 4]: 3/3 | Prostate: Normal [2, 4]: 3/3 | Rectum: Normal [2, 4]: 3/3 | Salivary gland: Normal [2, 4]: 3/3 | Seminal vesicle: Normal [2, 4]: 3/3 | Skin/ Mammary gland: Normal [2, 4]: 3/3 | Spleen: Normal [2, 4]: 3/3 | Stomach: Normal [2, 4]: 3/3 | Testis: Normal [2, 4]: 3/3 | Thymus: Normal [2, 4]: 3/3 | Thyroid gland: Normal [2, 4]: 3/3 | Trachea: Normal [2, 4]: 3/3 | Urinary bladder: Normal [2, 4]: 3/3 | body weight during 14-day treatment ([2]; rat, in vivo, po, 100 mg/kg): without statistically significant weight loss | hematological analysis, overall finding ([2]; rat, in vivo, po, 100 mg/kg): no adverse changes | organ morphology, overall finding ([2]; rat, in vivo, po, 100 mg/kg): no abnormalities

From publication PMC7799360, “Reprogramming immunosuppressive myeloid cells facilitates immunotherapy for colorectal cancer” (EMBO Molecular Medicine, 2020)
